Converted amounts (≈) assume the structure as drawn. Like-named read-outs stand apart in the source and are kept apart here.
Experiments:
MTT cytotoxicity assay = settings: human
Protocol: The cytotoxic activity of compounds was evaluated against four cancer cell lines KB, Hep-G2, Lu-1 and MCF-7, using colorimetric MTT assay. […]
MTT assay was used to determine the cytotoxic activity of compounds with human cancer cell lines acquired from the American Type Culture Collection (ATCC): epidermoid carcinoma (KB, ATCC number CCL-17), hepatocellular carcinoma (HepG2, ATCC number HB-8065), lung adenocarcinoma LU-1 (ATCC number HTB - 57TM), breast adenocarcinoma MCF-7 (ATCC number HTB - 22TM. Cells were cultured in medium DMEM supplemented with 10% Fetal bovine serum (FBS), 1% Penicillin and Streptomycin and 1% L-glutamine, under a humidified atmosphere of 5% CO2 at 37°C.
Compounds were dissolved in DMSO at 40 mg/mL and a series of dilutions for each compound was prepared to final concentrations of 256, 64, 16, 4 and 1 μg/mL. Cells were separated with trypsin and seeded in each well with 3 x10^4 cells per ml and were treated with sample different concentrations on 96-well plates. Untreated cells represented the controls. After 72h of treatment, an MTT solution (10 μl, 5 mg/mL) of phosphate buffer was added to each well for 4 h until intracellular purple formazan crystals are visible. Remove MTT and add DMSO solution (100 μL). The optical density of the solution was determined by Epoch™ Microplate Spectrophotometer at 540 nm. The inhibition ratio was calculated based on the optical densities from the three replicate […]
(§1) are evaluated to have cytotoxic activity.

[1] = target: T1, yeast α-GLy (α-glucosidase, Sigma G0660) (Saccharomyces cerevisiae, UniProt P53341); experiment: biochemical; assay type: biochemical; settings: yeast α-glucosidase, 37°C, pH 6.8
T1 construct: purchased Sigma G0660
T1 sequence (P53341 whole entry): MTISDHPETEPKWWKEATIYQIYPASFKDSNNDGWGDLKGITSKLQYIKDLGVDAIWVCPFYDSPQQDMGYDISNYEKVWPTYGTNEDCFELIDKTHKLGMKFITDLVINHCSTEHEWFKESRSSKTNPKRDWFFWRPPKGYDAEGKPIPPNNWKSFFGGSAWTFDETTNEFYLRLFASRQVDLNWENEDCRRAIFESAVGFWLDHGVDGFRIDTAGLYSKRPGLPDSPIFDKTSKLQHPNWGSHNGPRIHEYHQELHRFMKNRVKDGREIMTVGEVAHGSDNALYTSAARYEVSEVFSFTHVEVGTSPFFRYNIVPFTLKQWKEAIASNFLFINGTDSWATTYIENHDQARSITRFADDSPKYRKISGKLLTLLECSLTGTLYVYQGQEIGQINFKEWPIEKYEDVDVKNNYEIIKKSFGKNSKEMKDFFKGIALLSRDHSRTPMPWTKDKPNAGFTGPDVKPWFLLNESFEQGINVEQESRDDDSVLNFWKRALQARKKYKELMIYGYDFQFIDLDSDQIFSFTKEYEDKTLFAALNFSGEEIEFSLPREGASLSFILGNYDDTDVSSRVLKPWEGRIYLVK
Protocol: S1. Materials and Methods […]
glucosidase inhibition assay. α-Glucosidase enzyme inhibition assay was carried out in a 96-well microplate. The method’s principle based on the hydrolyzed reaction of 4-nitrophenyl-α-D-glucopiranoside with α-glucosidase enzyme into yellow 4- […]
p-Nitrophenyl α-D-Glucoside a- Gl ucosidas e α-D-Glucose + p- Nitrophenol α-Glucosidase inhibitory activity assay was performed following the modified method of Pistia Brueggeman and Hollingsworth with slight modification. Quinopimaric […]
concentrations of 256, 64, 16, 4 and 1 µg/mL. In a 96-well plate, a reaction mixture containing 20 μL of phosphate buffer (100 mM; pH 6.8), 20 μL of α-glucosidase (0.3 U/mL, Sigma G0660) (this concentration was determined by a series of α-glucosidase […]
linearity between the enzyme concentration and the absorbance of yellow color mixture after reaction which was approximately 5-fold higher than the back ground and at least […]
concentrations was pre-incubated for 10 min at 37°C. Then 20 μL of […] p-nitrophenyl α-D-glucopyranoside (Sigma N1377) was added to the mixture as a substrate. After further incubation at 37°C for 30 min, the reaction was stopped by adding 80 μL of 0.1 […]
solution were prepared using the phosphate buffer […]; pH 6.8. […]
as a positive control and water as negative control. The yellow color produced was quantitated by colorimetric analysis and reading the absorbance at 410 nm. Each experiment was performed in triplicates, along with appropriate blanks. The solvent DMSO was use as negative control to evaluate its effect on α-glucosidase activity. […]
or substrate in negative control. Back ground was determined by volume of buffer as […]
The % inhibition has been obtained using the formula:
% inhibition = {Absorbance (control) –Absorbance (sample)}/Absorbance (control) IC50 value is defined as the concentration of samples inhibiting 50% of α-glucosidase activity under the stated assay conditions. […]

[2] = DPPH radical scavenging assay; settings: DPPH 0.1 mM in methanol, 25°C, 30 min
Protocol: DPPH radical scavenging assay as described by Ha. The hydrogen atom donating ability of the plant extractives was determined by the decolorization of methanol solution of 2,2-diphenyl-1-picrylhydrazyl (DPPH). DPPH produces purple color in methanol solution and fades to shades of yellow color in the presence of antioxidants. […]
DPPH (0.1 mM) was diluted in methanol. 200 μL of this solution was added to 1.3 μL of various concentrations of compounds in DMSO (256.0, 64.0, 16.0, and 4.0 μg/mL). The mixture was performed by a 96-well plate at 25 °C in 30 min. Then, absorbance was determined by Epoch™ Microplate Spectrophotometer (at 517 nm). The percentage of DPPH quenching activity was computed by the following formula:
Inhibitory percentage SC (%) = [(Ao - A1)/Ao] × 100. where AO was defined as the absorbance of control reaction, and A1 represented for the absorbance in the presence of test or standard sample. Each experiment was repeated three times. Quercetin was used as a reference compound. […]

[3] = system: Lactobacillus fermentum (N4); experiment: Antimicrobial broth microdilution; assay type: cell-based; settings: L. fermentum
Protocol: (§2) Table S2. The result of antimicrobial tests of compounds 38, 45, 48 and 50.
(§3) Gram (+) strains Gram (-) strains Fungi
(§4) Compound Values (µg/ml) S. aureus B. L. S. E. P. C. subtilis fermentum enterica coli aeruginosa albican
(§5) The antimicrobial activity was determined by broth microdilution method as reported by. Broth dilution testing is one of the common methods used for determination of the MICs and IC50. The compounds are examined for visible bacterial growth as evidenced by turbidity. […]
(§6) S1.5. In vitro antimicrobial activity study of compounds 38, 45, 48 and 50 The Gram-positive bacteria: Bacillus subtilis (ATCC 6633), Lactobacillus fermentum (N4), Staphylococcus aureus (ATCC 13709); Gram -negative bacteria: Escherichia coli (ATCC 25922), Pseudomonas aeruginosa (ATCC 15442), Salmonella enterica; Yeast: Candida albicans (ATCC 10231) were obtained from American Type Culture Collection. The bacterial […]
(§7) Sabourand 2% dextrose broth, were purchased from Merck. […]
(§8) remaining at –80 0 C. Before assay, they were activated by culture medium and, adjusted the concentration to 5x10^5 CFU/mL. 10 μL of each concentration of each test […]
(§9) further incubated at 37 °C within 16-24h. The experiment was triplicated. Positive […]
(§10) medium without bacteria as a negative control. Ampicillin was used as a reference […]
(§11) inhibiting 50% the visible growth of the tested microorganisms. MIC, IC50 values are typically expressed as molar concentration. […]
(§12) treated with sample different concentrations on 96-well plates. Untreated cells represented the controls. […]
(§13) crystals are visible. Remove MTT and add DMSO solution (100 μL). The optical density […]
as §1

[4] = system: Staphylococcus aureus (ATCC 13709); experiment: Antimicrobial broth microdilution; assay type: cell-based; settings: ATCC13709, S. aureus
Protocol: as §2, §3, §4, §5, §6, §7, §8, §9, §10, §11, §12, §13, §1

[5] = system: Pseudomonas aeruginosa (ATCC 15442); experiment: Antimicrobial broth microdilution; assay type: cell-based; settings: ATCC15442, P. aeruginosa
Protocol: as §2, §3, §4, §5, §6, §7, §8, §9, §10, §11, §12, §13, §1

[6] = system: Bacillus subtilis (ATCC 6633); experiment: Antimicrobial broth microdilution; assay type: cell-based; settings: ATCC6633, B. subtilis
Protocol: as §2, §3, §4, §5, §6, §7, §8, §9, §10, §11, §12, §13, §1

[7] = system: Candida albicans (ATCC 10231); experiment: Antimicrobial broth microdilution; assay type: cell-based; settings: ATCC10231, C. albican
Protocol: as §2, §3, §4, §5, §6, §7, §8, §9, §10, §11, §12, §13, §1

[8] = system: Escherichia coli (ATCC 25922); experiment: Antimicrobial broth microdilution; assay type: cell-based; settings: ATCC25922, E. coli
Protocol: as §2, §3, §4, §5, §6, §7, §8, §9, §10, §11, §12, §13, §1

Salmonella enterica = experiment: Antimicrobial broth microdilution; assay type: cell-based; settings: S. enterica
Protocol: as §2, §3, §4, §5, §6, §7, §8, §9, §10, §11, §12, §13, §1

[9] = Hep-G2 hepatocellular carcinoma cells (ATCC HB-8065)
[10] = KB epidermoid carcinoma cells (ATCC CCL-17)
[11] = Lu-1 lung adenocarcinoma cells (ATCC HTB-57)
[12] = MCF-7 breast adenocarcinoma cells (ATCC HTB-22)
[13] = IC50 ± SE, α-glucosidase inhibition
[14] = read-out: IC50 ± SE, α-glucosidase inhibition

Row | SMILES | IC50 at 72 h (MTT cytotoxicity assay; [9]) [µg/mL] | IC50 at 72 h (MTT cytotoxicity assay; [10]) [µg/mL] | IC50 at 72 h (MTT cytotoxicity assay; [11]) [µg/mL] | IC50 at 72 h (MTT cytotoxicity assay; [12]) [µg/mL] | IC50 [1, 13] [nM] | IC50 values, antioxidant test (DPPH) [2] [µg/mL] | IC50 [3] [µg/mL] | MIC [3] [µg/mL] | IC50 [4] [µg/mL] | MIC [4] [µg/mL] | IC50 [5] [µg/mL] | MIC [5] [µg/mL] | IC50 [6] [µg/mL] | MIC [6] [µg/mL] | IC50 [7] [µg/mL] | MIC [7] [µg/mL] | IC50 [8] [µg/mL] | MIC [8] [µg/mL] | IC50 (Salmonella enterica) [µg/mL] | MIC (Salmonella enterica) [µg/mL] | also measured
1 | C#CCOC(=O)C1(C)CCCC2(C)C1CCC13C=C(C(C)C)C(CC12)C1=C3C(=O)C=CC1=O (stereo not drawn) [Compound 48, Propynyl 13-isopropyl-7,10a-dimethyl-1,4-di oxo-4,5,6,6a,7,8,9,10,10a,10b,11,12-dodecahydro-1H-4b,12-ethenochrysene-7-carboxylate] | 46 ± 0.8 (≈ 103 µM) | 30.5 ± 0.7 (≈ 68.3 µM) | 10.2 ± 0.18 (≈ 22.7 µM) | 39.2 ± 0.78 (≈ 87.9 µM) | 680 ± 45 | 177.45 ± 3.5 (≈ 397 µM) | 43.5 ± 2.52 (≈ 97.5 µM) | 256 (≈ 573 µM) | 8.29 ± 0.58 (≈ 18.6 µM) | 64 (≈ 143 µM) | > 256 | > 256 | 45 ± 2.18 (≈ 101 µM) | 256 (≈ 573 µM) | > 256 | > 256 | > 256 | > 256 | > 256 | > 256 | melting point: 85 to 89 °C
2 | COC(=O)[C@]1(C)CCC[C@]2(C)[C@H]3C[C@@H]4[C@H]5[C@@H]6CCC(=O)N[C@H]5[C@@]3(CC[C@H]21)C[C@@]4(C(C)C)O6 [Compound 39] | – | – | – | – | 44800 ± 960 | – | – | – | – | – | – | – | – | – | – | – | – | – | – | – | –
3 | COC(=O)[C@]1(C)CCC[C@]2(C)[C@H]3C[C@H]4C(C(C)C)=C[C@]3(CC[C@H]21)[C@@H]1C(=O)C(=Cc2ccco2)C[C@H](O)[C@@H]14 [Compound 7] | – | – | – | – | – | – | – | – | – | – | – | – | – | – | – | – | – | – | – | – | IC50 [1, 14]: 2500 ± 11 nM
4 | COC(=O)c1c(C)[nH]c2c3c(c(OCCC#N)cc12)C1CC2C3(C=C1C(C)C)CCC1C(C)(C(=O)OC)CCCC12C (stereo not drawn) [Compound 47, Methyl 1-(8′-cyanoethoxy)-13-isopropyl-1′-(ethoxycarbonyl)-7,10a,2′-trimethyl-5,6,6b,7,8,9,10,10a,10b,11,12,13-dodecahydro-12,4b-ethenophenanthro [2,1-g]indole-7-carboxylate] | – | – | – | – | 4950 ± 250 | – | – | – | – | – | – | – | – | – | – | – | – | – | – | – | melting point: 127 to 129 °C
5 | Cc1[nH]c2c3c(c(O)cc2c1CO)[C@H]1C[C@@H]2[C@@]4(C)CCC[C@@](C)(CO)[C@@H]4CC[C@@]32C=C1C(C)C [Compound 38] | 50.8 ± 1.2 (≈ 110 µM) | 39.5 ± 1 (≈ 85.3 µM) | 58.1 ± 1.8 (≈ 125 µM) | 60.4 ± 1.6 (≈ 130 µM) | – | 227.76 ± 4.9 (≈ 491 µM) | > 256 | > 256 | 34.3 ± 1.75 (≈ 74 µM) | > 256 | > 256 | > 256 | 102 ± 7.21 (≈ 221 µM) | 256 (≈ 552 µM) | > 256 | > 256 | > 256 | > 256 | > 256 | > 256 | IC50 [1, 14]: 390 ± 30 nM

— paper PMC9655717, “New Molecules of Diterpene Origin with Inhibitory Properties toward α-Glucosidase” (International Journal of Molecular Sciences, 2022)
